In the supplement of paper PMC10307832:

What was measured:
Experiment in all cases: relative viability (nuclei count vs DMSO), 5 days (fraction); higher = more cells survive
VX-11e + Lapatinib = compound: CC1=CN=C(N=C1C2=CNC(=C2)C(=O)N[C@H](CO)C3=CC(=CC=C3)Cl)NC4=C(C=C(C=C4)F)Cl [VX-11e] + CS(=O)(=O)CCNCc1ccc(-c2ccc3ncnc(Nc4ccc(OCc5cccc(F)c5)c(Cl)c4)c3c2)o1 [Lapatinib] (partner 2 µM)
Procedure, shortened: (§1)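 Lung cancer cell lines were pin-tool dosed in 1536-well plates on the day after seeding, with either a lone drug or a fixed anchor-drug dose plus five library-drug doses (not always all listed) in √10 steps. Nuclei were counted on 4× images after 5 days. Relative viability is the ratio of treated-well to vehicle-well nuclei counts, with each value a median of duplicate plates.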

VX-11e + Olaparib = compound: CC1=CN=C(N=C1C2=CNC(=C2)C(=O)N[C@H](CO)C3=CC(=CC=C3)Cl)NC4=C(C=C(C=C4)F)Cl [VX-11e] + O=C(c1cc(Cc2n[nH]c(=O)c3ccccc23)ccc1F)N1CCN(C(=O)C2CC2)CC1 [Olaparib] (partner 8 µM)
Procedure, shortened: as §1

VX-11e + Decitabine = compound: CC1=CN=C(N=C1C2=CNC(=C2)C(=O)N[C@H](CO)C3=CC(=CC=C3)Cl)NC4=C(C=C(C=C4)F)Cl [VX-11e] + Nc1ncn([C@H]2C[C@H](O)[C@@H](CO)O2)c(=O)n1 [Decitabine] (partner 2 µM)
Procedure, shortened: as §1

VX-11e + AZD7762 = compound: CC1=CN=C(N=C1C2=CNC(=C2)C(=O)N[C@H](CO)C3=CC(=CC=C3)Cl)NC4=C(C=C(C=C4)F)Cl [VX-11e] + NC(=O)Nc1cc(-c2cccc(F)c2)sc1C(=O)N[C@H]1CCCNC1 [AZD7762] (partner 0.2 µM)
Procedure, shortened: as §1

| Cell Line | relative viability (VX-11e + Lapatinib; first compound 0.04 µM) | relative viability (VX-11e + Lapatinib; first compound 0.1265 µM) | relative viability (VX-11e + Lapatinib; first compound 0.4 µM) | relative viability (VX-11e + Lapatinib; first compound 1.265 µM) | relative viability (VX-11e + Lapatinib; first compound 4 µM) | relative viability (VX-11e + Olaparib; first compound 0.04 µM) | relative viability (VX-11e + Olaparib; first compound 0.1265 µM) | relative viability (VX-11e + Olaparib; first compound 0.4 µM) | relative viability (VX-11e + Olaparib; first compound 1.265 µM) | relative viability (VX-11e + Olaparib; first compound 4 µM) | relative viability (VX-11e + Decitabine; first compound 0.04 µM) | relative viability (VX-11e + Decitabine; first compound 0.1265 µM) | relative viability (VX-11e + Decitabine; first compound 0.4 µM) | relative viability (VX-11e + Decitabine; first compound 1.265 µM) | relative viability (VX-11e + Decitabine; first compound 4 µM) | relative viability (VX-11e + AZD7762; first compound 0.04 µM) | relative viability (VX-11e + AZD7762; first compound 0.1265 µM) | relative viability (VX-11e + AZD7762; first compound 0.4 µM) | relative viability (VX-11e + AZD7762; first compound 1.265 µM) | relative viability (VX-11e + AZD7762; first compound 4 µM) |
| --- | --- | --- | --- | --- | --- | --- | --- | --- | --- | --- | --- | --- | --- | --- | --- | --- | --- | --- | --- | --- |
| NCI-H1355 | 0.613 | 0.948 | 0.879 | 0.728 | 0.48 | 0.735 | 0.759 | 0.655 | 0.554 | 0.395 | 0.401 | 0.376 | 0.34 | 0.413 | 0.31 | 0.757 | 0.695 | 0.45 | 0.615 | 0.368 |
| NCI-H1395 | 0.969 | 0.864 | 0.548 | 0.82 | 0.716 | 0.424 | 0.461 |  | 0.499 | 0.388 | 0.734 | 0.721 |  | 0.695 | 0.62 | 0.377 | 0.394 |  | 0.385 | 0.365 |
| NCI-H1437 | 0.755 | 0.754 | 0.35 | 0.291 | 0.228 | 0.621 | 0.619 | 0.653 | 0.529 | 0.476 | 0.589 | 0.519 | 0.517 | 0.602 | 0.494 | 1.11 | 1.09 | 0.867 | 0.972 | 0.741 |
| NCI-H1651 | 0.639 | 0.747 | 0.634 | 0.602 | 0.654 | 0.169 | 0.201 | 0.209 | 0.152 | 0.177 | 0.445 | 0.633 | 0.541 | 0.497 | 0.59 | 0.331 | 0.399 | 0.464 | 0.47 | 0.377 |
| NCI-H1666 | 0.713 | 0.99 | 0.467 | 0.43 | 0.388 | 0.756 | 0.77 |  | 0.742 | 0.649 | 0.636 | 0.769 | 0.541 | 0.671 | 0.598 | 0.803 | 0.832 | 0.715 | 0.732 | 0.699 |
| NCI-H1734 | 0.808 | 1.05 | 0.745 | 0.805 | 0.46 | 0.632 | 0.601 | 0.607 | 0.542 | 0.365 | 0.482 | 0.523 | 0.428 | 0.538 | 0.368 | 0.525 | 0.532 | 0.307 | 0.334 | 0.296 |
| NCI-H1755 | 1.05 | 0.97 | 0.833 | 0.93 | 0.771 | 0.903 | 0.853 | 0.874 | 0.942 | 0.747 | 0.7 | 0.736 | 0.665 | 0.716 | 0.661 | 0.434 | 0.333 | 0.341 | 0.513 | 0.359 |
| NCI-H1792 | 0.889 | 0.91 | 1 | 0.86 | 0.755 |  | 0.541 |  | 0.518 | 0.287 |  | 0.493 |  | 0.619 | 0.328 |  | 0.623 |  | 0.413 | 0.0597 |
| NCI-H1793 |  | 0.611 |  | 0.397 | 0.278 |  | 0.788 |  | 0.751 | 0.313 |  | 0.406 |  | 0.516 | 0.351 |  | 0.361 |  | 0.516 | 0.191 |
| NCI-H1915 | 0.981 | 0.92 | 0.984 | 0.976 | 0.808 | 0.277 | 0.23 | 0.305 | 0.225 | 0.231 | 0.246 | 0.264 | 0.25 | 0.264 | 0.238 | 0.719 | 0.719 | 0.596 | 0.791 | 0.554 |
| NCI-H1944 | 0.748 | 0.733 | 0.621 | 0.647 | 0.586 | 0.405 | 0.417 | 0.376 | 0.345 | 0.328 | 0.461 | 0.509 | 0.412 | 0.41 | 0.374 | 0.513 | 0.522 | 0.255 | 0.449 | 0.37 |
| NCI-H1975 | 0.925 | 0.862 | 0.665 | 0.811 | 0.342 | 0.84 | 0.808 | 0.806 | 0.803 | 0.31 | 0.42 | 0.388 | 0.336 | 0.364 | 0.226 | 0.657 | 0.721 | 0.562 | 0.57 | 0.378 |
| NCI-H1993 |  | 0.818 |  | 0.73 | 0.727 |  | 1.13 | 0.895 | 0.879 | 0.785 |  | 0.644 | 0.674 | 0.659 | 0.509 |  | 0.884 | 0.687 | 0.453 | 0.48 |
| NCI-H2085 | 0.596 | 0.765 | 0.73 | 0.647 | 0.608 | 0.835 | 0.758 | 0.709 | 0.706 | 0.598 | 0.658 | 0.542 | 0.525 | 0.539 | 0.553 | 0.853 | 0.975 | 0.829 | 0.887 | 0.642 |
| NCI-H2087 | 1.23 | 0.867 | 0.42 | 0.979 | 0.295 | 0.646 | 0.659 |  | 0.531 | 0.252 | 0.318 | 0.295 |  | 0.182 | 0.158 | 1.51 | 1.37 |  | 1.24 | 0.583 |
| NCI-H2126 |  | 0.752 | 0.752 | 0.742 | 0.599 | 0.885 | 0.874 | 0.864 | 0.879 | 0.751 | 0.561 | 0.608 | 0.558 | 0.614 | 0.573 | 0.844 | 0.972 | 0.795 | 1.01 | 0.861 |
| NCI-H2170 | 0.229 | 0.259 | 0.231 | 0.243 | 0.252 | 0.635 | 0.662 | 0.603 | 0.629 | 0.534 | 0.477 | 0.442 | 0.516 | 0.541 | 0.547 | 0.758 | 0.89 | 0.298 | 0.632 | 0.821 |
| NCI-H2347 | 1.05 | 0.878 | 0.809 | 0.809 | 0.453 | 0.585 | 0.6 | 0.636 | 0.518 | 0.36 | 0.604 | 0.554 | 0.504 | 0.534 | 0.661 | 0.834 | 0.722 | 0.551 | 0.501 | 0.375 |
| NCI-H2405 | 1.07 | 1.01 |  | 1.05 | 0.349 | 0.961 | 0.814 | 0.333 | 0.873 | 0.379 | 0.761 | 0.733 | 0.305 | 0.776 | 0.443 | 0.835 | 0.729 | 0.625 | 0.671 | 0.412 |
| NCI-H3122 | 1.07 | 0.98 | 0.855 | 0.892 | 0.626 | 0.717 | 0.661 | 0.689 | 0.558 | 0.468 | 0.418 | 0.484 | 0.335 | 0.39 | 0.209 | 1.13 | 1.13 | 0.353 | 0.933 | 0.577 |
| PC-3 [JPC-3] | 0.384 | 0.485 | 0.436 | 0.453 | 0.445 | 1.23 | 1.09 | 1.09 | 1.19 | 0.901 | 0.839 | 0.813 | 0.809 | 0.788 | 0.705 | 0.697 | 0.653 | 0.685 | 0.701 | 0.711 |
| PC-14 | 0.275 | 0.327 | 0.251 | 0.35 | 0.203 | 0.269 | 0.261 | 0.222 | 0.22 | 0.214 | 0.243 | 0.19 | 0.202 | 0.247 | 0.235 | 0.341 | 0.339 | 0.274 | 0.278 | 0.256 |
| RERF-LC-KJ | 0.833 | 0.776 | 0.879 | 0.848 | 0.649 | 1.11 | 0.884 | 0.945 | 0.921 | 0.979 | 0.707 | 0.703 | 0.592 | 0.807 | 0.62 | 0.572 | 0.876 | 0.498 | 0.903 | 0.839 |
